Laboratory results from US6147230A, “Amino acid dysiherbaine” (priority 1996, dated 2000).
Read-outs that look alike come from different tables or passages of the source.

Legend:
AMPA receptors = experiment: Radiobinding assay in rat brain synaptic membrane samples, [^3 H] AMPA (AMPA receptors); format: binding; conditions: [^3 H] AMPA 5 nM, 4° C., 1 hour; for IC50: 100 mM KSCN/50 mM Tris-acetate pH 7.4, read-out: IC50, inhibition of [^3 H] AMPA binding
Description: (§1) Radiobinding assay in rat brain synaptic membrane samples
(§2) Rat brain synaptic membrane samples were prepared according to the described protocols (London, E. D., Coyle, J. T., Mol. Pharmacol. 1979, 15, 492; Murphy, D. E., Snowhill, E. W.; Williams, M., Neurochem. Res. 1987, 12, 775 and Murphy, D. E., Hutchison, A. J., Hurt, S. D., Williams, M., Sills, M. A., Br. J. Pharmacol. 1988, 95, 932). Radioligands and incubation conditions used in the binding assay as well as experimental results are as follows:
[Conditions]: ligand [^3 H] AMPA 5 nM; incubation medium 100 mM KSCN/50 mM Tris-acetate buffer (pH 7.4); incubation condition 4° C., 1 hour.

[1] = test system: Glutamate receptors expressed in primary cultures of rat cerebral cortex neurocytes; experiment: Electrophysiological evaluation (patch clamp whole cell) in primary cultures of rat cerebral cortex neurocytes; format: cell-based
From the text: Electrophysiological evaluation in primary cultures of rat cerebral cortex neurocytes

DDY mouse = experiment: Intraperitoneal administration to mice; format: in vivo
Description: Intraperitoneal administration to mice
Compound (1) was diluted with purified water and intraperitoneally injected into a DDY mouse (male, 15 g).

KA receptors = experiment: Radiobinding assay in rat brain synaptic membrane samples, [^3 H] kainic acid (KA receptors); format: binding; conditions: [^3 H] kainic acid 1 nM, 4° C., 1 hour; for IC50: 100 mM Tris-acetate pH 7.1, read-out: IC50, inhibition of [^3 H] kainic acid binding
Description: as §1, §2
[Conditions]: ligand [^3 H] kainic acid 1 nM; incubation medium 100 mM Tris-acetate buffer (pH 7.1); incubation condition 4° C., 1 hour.

NMDA receptors = experiment: Radiobinding assay in rat brain synaptic membrane samples, [^3 H] CGS-19755 (NMDA receptors); format: binding; conditions: [^3 H] CGS-19755 10 nM; 50 mM Tris-acetate pH 8.0; 4° C., 1 hour
Description: as §1, §2
[Conditions]: ligand [^3 H] CGS-19755 10 nM; incubation medium 50 mM Tris-acetate buffer (pH 8.0); incubation condition 4° C., 1 hour.

rats = conditions: prior art statement; cited from earlier work
[2] = inward current, patch clamp whole cell; cultures grown 10-21 days
[3] = read-out: EC50, inward current; patch clamp whole cell; cultures grown 10-21 days

`Cc1onc(O)c1CC(N)C(=O)O` (stereo not drawn) [AMPA, α-amino-3-hydroxy-5-methyl-4-isoxazolepropionic acid] gave an IC50 (AMPA receptors) of 5.6 ± 1.1 nM, a Max response [1, 2] of 1.26 nA and an EC50 ([1]; patch clamp whole cell; cultures grown 10-21 days; read-out: EC50, inward current) of 4000 nM.
For `N#Cc1cc2[nH]c(=O)c(=O)[nH]c2cc1[N+](=O)[O-]` [CNQX, 6-cyano-7-nitroquinoxaline-2,3-dione], the “inhibition of the current induced by Compound (1)” value ([1]; current induced by Compound (1)) was “significantly inhibited”.
For `CNC1C(O)COC2CC(CC(N)C(=O)O)(C(=O)O)OC21` (centres unmarked) [Compound (1), dysiherbaine], the “behavioural effect, low dose” value (DDY mouse; 20 μg/kg i.p., male DDY mouse) was “repeat scratching on the flank”, the “duration of repeated scratching on the flank” value (DDY mouse; 20 μg/kg i.p., male DDY mouse) was 10 to 20 min and the “behavioural effect, moderate dose” value (DDY mouse; 1.3 mg/kg i.p., male DDY mouse) was “epileptoid spasm”. The “recovery, moderate dose” value (DDY mouse; 1.3 mg/kg i.p., male DDY mouse) was “recovered from this condition on the following day”, the “effect, higher dose” value (DDY mouse; 6.5 mg/kg i.p., male DDY mouse) was “died in about 40 minutes after violent attack” and the time to death (DDY mouse; 6.5 mg/kg i.p., male DDY mouse) was “about 40 minutes”. The “in vivo activity compared with domoic acid” value (DDY mouse; compared with known KA agonist domoic acid) was “stronger in vivo activity than a known KA agonist domoic acid”, the IC50 (KA receptors) was 59 ± 7.8 nM and the “inhibition of [^3 H] kainic acid binding to KA receptors” value (KA receptors; pH 7.1) was “concentration-dependently inhibited”. For the same molecule, the IC50 (AMPA receptors) was 224 ± 22 nM, the “inhibition of [^3 H] AMPA binding to AMPA receptors” value (AMPA receptors; pH 7.4) was “concentration-dependently inhibited” and the “inhibition of [^3 H] CGS-19755 binding to NMDA receptors” value (NMDA receptors) was “did not inhibit”. The “inward current compared with kainic acid” value ([1]; compared with kainic acid) was “stronger inward current than kainic acid”, the Max response [1, 2] was 1.40 nA and the “induction of inward current” value ([1]; patch clamp whole cell) was “concentration-dependently induced a strong inward current”. The EC50 [1, 3] was 4000 nM.
In the case of `N[C@@H](CCC(=O)O)C(=O)O` [Glutamic acid, L-glutamic acid, reference compound], the IC50 (KA receptors) is reported as 110 ± 18 nM and the IC50 (AMPA receptors) is reported as 124 ± 41 nM.
Work on `C=C(C)[C@H]1CN[C@H](C(=O)O)[C@H]1CC(=O)O` [Kainic acid, kainic acid] yielded an IC50 (KA receptors) of 4.3 ± 0.5 nM, a Max response [1, 2] of 1.31 nA and an EC50 [1, 3] of 40000 nM. The “lesions and neuronal degeneration in rats” value (rats) was “induces epileptoid lesions and neuronal degeneration in rats”.
